# Read-outs that look alike come from different tables or passages of the source.
# Key:
# UM-22B tumors = test system: UM-22B tumors; parameters: species or system mice; conditions: female, athymic nude, mouse, in vivo
# Method: All animal studies were conducted in accordance with the principles and procedures outlined in the Guide for the Care and Use of Laboratory Animals and were approved by the Institutional Animal Care and Use Committee of the Clinical Center, NIH. The UM-22B human head and neck carcinoma cancer cell line was grown in DMEM medium supplemented with 10% fetal bovine serum (FBS), 100 IU/mL penicillin, and 100 μg/mL streptomycin (Invitrogen), and in a humidified atmosphere containing 5% CO2 at 37° C. The tumor model was developed in 5 to 6 week old female athymic nude mice (Harlan Laboratories) by injection of 5×10^6 cells into their right shoulders. The mice underwent small-animal PET studies when the tumor volume reached 100-300 mm^3 (2-3 weeks after inoculation).
# PET scans and image analysis were performed using an Inveon small animal PET scanner (Siemens Medical Solutions). About 3.7 MBq of ^18F-AlF-NEB or ^18F-FB-Albumin or 7.4 MBq of ^64Cu-NEB was administered via tail vein injection under isoflurane anesthesia. For normal mice, 60-min dynamic PET scans were acquired. For tumor mice, 60-min dynamic PET scans were acquired, followed by a series of late time point scans at 2, 4, and 24 h (^64Cu only) after tracer injection. With acute inflammation model, 5-min static PET images were acquired at 30 min, 1 h and 2 h postinjection (n=3-5 per group). The images were reconstructed using a two-dimensional ordered-subset expectation maximum (2D OSEM) algorithm, and no correction was applied for attenuation or scatter. For each scan, regions of interest (ROIs) were drawn using vendor software (ASI Pro 5.2.4.0) on decay-corrected whole-body coronal images. The radioactivity concentrations (accumulation) within the heart, muscle, liver, and kidneys were obtained from mean pixel values within the multiple ROI volume and then converted to MBq per milliliter. These values were then divided by the administered activity to obtain (assuming a tissue density of 1 g/ml) an image-ROI-derived percent injected dose per gram (% ID/g).
# Malignant tumors are characterized by torturous blood vessels and high vascular permeability. Besides, the anti-angiogenesis and “normalization” of tumor vasculature have been intensively investigated. Unlike radiolabeled RBCs, albumin can be used to study vascular permeability in tumors. NEB was labeled with ^64Cu, a positron emitter with longer half-life (t1/1=12.6 h) than ^18F (t1/2=109.8 min). A UM-22B xenograft model was developed and performed 60-min dynamic scan and then static scans at late time points up to 24 h. The in vivo distribution of ^64Cu-NEB was very similar to that of ^18F-AlF-NEB with most of radioactivity retained in the circulation system (FIG. 4A). Even at 4 h after tracer injection, radioactivity within heart region and major vessels was still dominant. […] At 24 h after tracer injection, the tumor uptake was still at a relatively high level (8.07±1.01% ID/g). The tracer uptake over the heart region was 16.09±0.51% ID/g at 1 h p.i., which dropped to 8.58±0.81% ID/g at 24 h (FIG. 5B).
# [1] = human, in vivo
# Method: A dosimetry study was also performed based on the PET imaging data.
# lymph nodes = test: Amount of EB dye in lymph nodes after local co-injection of 18F-AlF-NEB and EB; conditions: ex vivo
# Method: Ninety min after local injection, both popliteal LN sites could be distinguished clearly by the apparent blue color, indicating the local accumulation of the dye molecules. The left sciatic LNs could also be seen but with much lower uptake of dye (FIGS. 19A and 19B). There was significant difference in weight between the popliteal LNs on the tumor side and the contralateral side but not between the sciatic LNs (popliteal LNs: 3.582±0.762 vs. 1.995±0.759 mg, p<0.05; sciatic LNs: 1.558±0.731 vs. 1.403±0.632 mg, p>0.05) (FIG. 20). […] However, there was no difference in the amount of EB between two sciatic LNs (0.030±0.008 μg vs. 0.028±0.015 μg, p>0.05). These ex vivo results were consistent with in vivo PET data.
# albumin = albumin (Homo sapiens, UniProt P02768); test: Absorbance and fluorescence emission of Evans blue with and without albumin; assay type: physicochemical
# Text: FIGS. 1A and 1B show the absorbance and fluorescence emission of Evans blue with and without albumin. […] Evans blue is almost not fluorescent without albumin.
# After forming a complex with serum albumin, both NEB and EB became fluorescent. Since only trace amount of NEB was mixed with EB, the majority of the fluorescence came from EB. […] With optical imaging, the migration of the injected EB/NEB in lymphatics could be clearly observed after local injection. The fluorescence signal first reached the popliteal LN then migrated to the sciatic LN (FIG. 22). Ninety min after tracer injection, both LNs were clearly visualized by fluorescence optical imaging. Under bright light, apparent blue dye accumulation could also be seen by the naked eye (FIGS. 23A and 23B). PET and optical imaging were also performed with the same animal after injection of ^18F-AlF-NEB/EB. An overlay of the two images provided high positional correlation of the LNs (FIGS. 24A and 24B).
# platelet aggregation = conditions: cited from earlier work
# [2] = ninety min after local injection
# Sequence of albumin (P02768 25-609, species assumed): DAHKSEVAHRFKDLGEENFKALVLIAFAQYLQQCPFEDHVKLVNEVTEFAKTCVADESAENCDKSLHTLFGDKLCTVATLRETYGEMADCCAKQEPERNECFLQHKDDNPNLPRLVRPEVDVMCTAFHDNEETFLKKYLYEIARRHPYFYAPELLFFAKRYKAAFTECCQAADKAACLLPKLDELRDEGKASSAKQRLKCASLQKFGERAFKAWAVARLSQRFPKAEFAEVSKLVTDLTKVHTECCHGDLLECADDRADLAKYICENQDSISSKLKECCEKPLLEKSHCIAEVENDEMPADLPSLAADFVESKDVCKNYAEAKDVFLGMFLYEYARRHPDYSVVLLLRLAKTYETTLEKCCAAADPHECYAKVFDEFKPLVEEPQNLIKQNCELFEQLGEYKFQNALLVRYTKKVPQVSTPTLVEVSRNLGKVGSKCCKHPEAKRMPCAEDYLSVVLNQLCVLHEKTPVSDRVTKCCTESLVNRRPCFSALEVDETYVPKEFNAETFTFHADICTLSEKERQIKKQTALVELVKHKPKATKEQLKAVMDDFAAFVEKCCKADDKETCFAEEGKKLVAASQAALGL
Structure (SMILES),tracer uptake over the heart region (UM-22B tumors; 1 h),tumor uptake (UM-22B tumors; 1 h),tumor uptake (UM-22B tumors; 2 h),tracer uptake over the heart region (UM-22B tumors; 24 h),tumor uptake (UM-22B tumors; 24 h),"absorbed dose, red bone marrow [1]","amount of EB in sciatic LNs, first value of the pair (lymph nodes; presumably left side)","amount of EB in sciatic LNs, second value of the pair (lymph nodes; presumably right side)",amount of EB dye in left popliteal LNs (lymph nodes; [2]),amount of EB dye in right popliteal LNs (lymph nodes; [2]),fluorescence emission peak (albumin; only with albumin),absorbance peak (albumin; with or without albumin),threshold concentration for induction of platelet aggregation (platelet aggregation)
Cc1cc(-c2ccc(NC(=O)CN3CCN4CCN(CC3)CC(=O)[O][64Cu][O]C(=O)C4)c(C)c2)ccc1N=Nc1ccc2c(S(=O)(=O)O)cc(S(=O)(=O)O)c(N)c2c1O [^64Cu-NEB],16.09±0.51 % ID/g,5.73±1.11 % ID/g,8.03±0.77 % ID/g,8.58±0.81 % ID/g,8.07±1.01 % ID/g,6.14 mSv,,,,,,,
"Cc1cc(-c2ccc(/N=N/c3ccc4c(S(=O)(=O)O)cc(S(=O)(=O)O)c(N)c4c3O)c(C)c2)ccc1/N=N/c1ccc2c(S(=O)(=O)O)cc(S(=O)(=O)O)c(N)c2c1O [EB, Evans blue]",,,,,,,0.030 ± 0.008 µg,0.028 ± 0.015 µg,0.144 ± 0.034 µg,0.091 ± 0.029 µg,680 nm,620 nm,about 100 μM

# Reference: patent publication US10258701B2, “Labeled evans blue dye derivative for in vivo serum albumin labeling” (The United States of America, as represented by the …, priority 2015, dated 2019)
